Results published in US20090012103A1, “SUBSTITUTED HETEROCYCLIC COMPOUNDS” (priority 2007, published 2009).

Tests used:
[1] = molecular target: T1, wild-type human cardiac sodium channel, hNav1.5 (Homo sapiens, UniProt Q14524); test: Late INa screening assay (late sodium current, PatchXpress whole cell patch clamp); type: cell-based; conditions: compound at 10 μM; read-out: Late INa % blk
[2] = molecular target: T1, wild-type human cardiac sodium channel, hNav1.5; test: Peak INa screening assay (tonic block TB and use-dependent block UDB of peak sodium current); type: cell-based; conditions: compound at 10 μM
Description: The late sodium current (Late INa) and peak sodium current (Peak INa) assays are performed on an automated electrophysiology platform, PatchXpress 7000A (MDS Analytical Technologies, Sunnyvale, Calif.), which uses the whole cell patch clamp technique to measure currents through the cell membrane of up to 16 cells at a time. The assay uses an HEK293 (human embryonic kidney) cell line heterologously expressing the wild-type human cardiac sodium channel, hNav1.5, purchased from Millipore (Billerica, Mass.). No beta subunits were coexpressed with the Na channel alpha subunit. […] Experiments are carried out at 24-27° C.
For both the Late INa and Peak INa assays, series resistance compensation is set to 50% and whole-cell compensation is performed automatically. […] Currents through open sodium channels are automatically recorded and stored in the DataXpress2 database (MDS Analytical Technologies, Sunnyvale, Calif.). Analysis is performed using DataXpress2 analysis software and data are compiled in Excel.
Compound stocks are routinely made in glass vials to 10 mM in dimethyl sulfoxide (DMSO). In some cases, when compounds are not soluble in DMSO, they are made in 100% ethanol. Stocks are sonicated as necessary. The extracellular solution for screening Late INa is composed of: 140 mM NaCl, 4 mM KCl, 1.8 mM CaCl2, 0.75 mM MgCl2, and 5 mM HEPES with pH adjusted to 7.4 using NaOH. The extracellular solution for screening Peak INa is composed of: 20 mM NaCl, 120 mM N-methyl-D glucamine, 4 mM KCl, 1.8 mM CaCl2, 0.75 mM MgCl2, and 5 mM HEPES with pH adjusted to 7.4 using HCl. The intracellular solution used to perfuse the inside of the cells for both the Late INa and Peak INa assays contains: 120 mM CsF, 20 mM CsCl, 5 mM EGTA, 5 mM HEPES and pH adjusted to 7.4 with CsOH. Compounds are diluted in extracellular solution to 10 μM in glass vials and then transferred to glass well plates before robotic addition to the cells. The 0 Na extracellular solution used at the end of each experiment for the Late INa and Peak INa assays to measure baseline current contains: 140 mM N-methyl-D-glucamine; 4 mM KCl; 1.8 mM CaCl2; 0.75 mM MgCl2; 5 mM HEPES and pH was adjusted to 7.4 with HCl.
Compounds were also evaluated for their effect in several other assays, including their effect on Peak INa. In some cases, the effect on Peak INa was measured using data from the Late INa assay. […] Since the peak INa can be very large, introducing artifacts in the recording, the concentration of Na^+ in the bath is reduced to 20 mM and a nonpermeant cation is added to compensate for the Na^+ that was omitted from the standard extracellular solution (see above). The peak INa assay uses a holding potential of −100 mV and a 20 ms test pulse to 0 mV to activate the channel. As in the Late INa assay, stepping the voltage to 0 mV causes a rapid increase in negative Na current through hNav1.5 that inactivates within a few ms. No late INa activator is added for the peak assay.
For the separate peak INa assay, both tonic (TB) block and use-dependent (UDB) block of peak inward sodium current by 10 μM compound are determined. TB is block of the channel in the resting state, before the channel opens. TB is simulated in this assay by stimulating the channel to open at a low frequency (0.1 Hz). This is done in order to measure the control current amplitude and monitor current rundown, enabling correction for rundown in the calculation of percent block for TB.

[3] = molecular target: hERG potassium channel (Homo sapiens, UniProt Q12809); test: hERG screening assay (PatchXpress patch clamp, CHO cell line)
Description: Compounds were screened to test their activity in blocking the hERG potassium channel. The hERG channel is heterologously expressed in a CHO (Chinese Hamster Ovary) cell line. Cells are maintained with standard tissue culture procedures and stable channel expression is maintained with 500 μg/ml G418 in the culture medium. Cells are harvested for testing on the PatchXpress automated patch clamp with Accumax (Innovative Cell Technologies, San Diego, Calif.) to isolate single cells.
The following solutions are used for electrophysiological recordings. The external solution contains: 2 mM CaCl2; 2 mM MgCl2; 4 mM KCl; 150 mM NaCl; 10 mM Glucose; 10 mM HEPES (pH 7.4 with 1M NaOH, osmolarity).
hERG channels are activated when the voltage is stepped to +20 mV from the −80 mV holding potential (see FIG. 3). During a 5 second step at +20 mV, the channels activate and then largely inactivate, so the currents are relatively small. Upon returning to −50 mV from +20 mV, hERG currents transiently become much larger as inactivation is rapidly removed and then the channel closes. The first step to −50 mV for 300 ms is used as a baseline for measuring the peak amplitude during the step to −50 mV after channel activation. The peak current at −50 mV is measured both under control conditions and after addition of compound.
All compounds are prepared as 10 mM DMSO stocks in glass vials. Stock solutions are mixed by vigorous vortexing and sonication for about 2 minutes at room temperature. For testing, compounds are diluted in glass vials using an intermediate dilution step in pure DMSO and then further diluted to working concentrations in external solution. Dilutions are prepared no longer than 20 minutes before use.
After achieving the whole-cell configuration, cells are monitored for 90 seconds to assess stability and washed with external solution for 66 seconds. The voltage protocol described above is then applied to the cells every 12 seconds and throughout the whole procedure. Only cells with stable recording parameters and meeting specified health criteria are allowed to enter the compound addition procedure.
External solution containing 0.1% DMSO (vehicle) is applied to the cells first to establish the control peak current amplitude. After allowing the current to stabilize for 3 to 5 minutes, 1 μM and then 10 μM test compounds are applied. Each compound concentration is added 4 times and cells are kept in test solution until the effect of the compound reaches steady state or for a maximum of 12 minutes. […] Washout in the external solution compartment is performed until the recovery of the current reaches steady state. Data are analyzed using DataXpress, Clampfit (Molecular Devices, Inc., Sunnyvale) and Origin 7 (Originlab Corp.)

[4] = tonic block, read-out: Tonic Peak INa % blk
[5] = use-dependent block, read-out: UDB Peak INa % blk

Sequence of hERG potassium channel (Q12809 whole entry): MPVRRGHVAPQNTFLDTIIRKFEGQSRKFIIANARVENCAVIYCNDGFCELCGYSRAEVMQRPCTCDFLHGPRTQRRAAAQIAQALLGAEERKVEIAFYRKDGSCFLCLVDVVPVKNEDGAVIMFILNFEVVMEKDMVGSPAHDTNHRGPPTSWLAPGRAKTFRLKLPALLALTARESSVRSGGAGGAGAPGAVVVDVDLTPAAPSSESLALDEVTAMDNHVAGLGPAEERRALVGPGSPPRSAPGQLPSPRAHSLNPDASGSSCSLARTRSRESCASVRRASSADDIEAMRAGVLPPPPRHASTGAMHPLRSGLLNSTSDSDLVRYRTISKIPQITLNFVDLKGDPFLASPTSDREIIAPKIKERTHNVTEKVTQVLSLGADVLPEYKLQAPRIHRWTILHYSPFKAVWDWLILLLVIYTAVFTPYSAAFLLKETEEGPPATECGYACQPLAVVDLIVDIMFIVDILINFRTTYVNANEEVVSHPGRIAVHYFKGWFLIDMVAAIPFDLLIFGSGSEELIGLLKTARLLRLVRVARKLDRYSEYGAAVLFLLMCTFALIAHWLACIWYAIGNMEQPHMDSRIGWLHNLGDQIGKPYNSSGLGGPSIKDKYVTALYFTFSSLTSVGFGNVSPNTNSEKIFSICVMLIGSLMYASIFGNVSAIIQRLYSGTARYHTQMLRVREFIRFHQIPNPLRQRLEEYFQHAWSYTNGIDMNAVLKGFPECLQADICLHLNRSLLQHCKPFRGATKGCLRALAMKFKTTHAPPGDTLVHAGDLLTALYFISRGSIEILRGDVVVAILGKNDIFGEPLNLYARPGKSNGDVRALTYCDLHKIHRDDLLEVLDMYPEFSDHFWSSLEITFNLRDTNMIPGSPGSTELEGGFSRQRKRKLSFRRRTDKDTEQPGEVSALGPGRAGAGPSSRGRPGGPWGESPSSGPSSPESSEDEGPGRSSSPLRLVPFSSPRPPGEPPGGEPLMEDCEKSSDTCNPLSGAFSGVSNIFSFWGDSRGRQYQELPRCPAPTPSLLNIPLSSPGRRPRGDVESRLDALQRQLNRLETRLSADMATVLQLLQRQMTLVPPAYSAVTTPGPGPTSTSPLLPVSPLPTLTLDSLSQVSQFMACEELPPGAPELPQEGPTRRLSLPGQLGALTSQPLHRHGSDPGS
T1 sequence (Q14524 whole entry): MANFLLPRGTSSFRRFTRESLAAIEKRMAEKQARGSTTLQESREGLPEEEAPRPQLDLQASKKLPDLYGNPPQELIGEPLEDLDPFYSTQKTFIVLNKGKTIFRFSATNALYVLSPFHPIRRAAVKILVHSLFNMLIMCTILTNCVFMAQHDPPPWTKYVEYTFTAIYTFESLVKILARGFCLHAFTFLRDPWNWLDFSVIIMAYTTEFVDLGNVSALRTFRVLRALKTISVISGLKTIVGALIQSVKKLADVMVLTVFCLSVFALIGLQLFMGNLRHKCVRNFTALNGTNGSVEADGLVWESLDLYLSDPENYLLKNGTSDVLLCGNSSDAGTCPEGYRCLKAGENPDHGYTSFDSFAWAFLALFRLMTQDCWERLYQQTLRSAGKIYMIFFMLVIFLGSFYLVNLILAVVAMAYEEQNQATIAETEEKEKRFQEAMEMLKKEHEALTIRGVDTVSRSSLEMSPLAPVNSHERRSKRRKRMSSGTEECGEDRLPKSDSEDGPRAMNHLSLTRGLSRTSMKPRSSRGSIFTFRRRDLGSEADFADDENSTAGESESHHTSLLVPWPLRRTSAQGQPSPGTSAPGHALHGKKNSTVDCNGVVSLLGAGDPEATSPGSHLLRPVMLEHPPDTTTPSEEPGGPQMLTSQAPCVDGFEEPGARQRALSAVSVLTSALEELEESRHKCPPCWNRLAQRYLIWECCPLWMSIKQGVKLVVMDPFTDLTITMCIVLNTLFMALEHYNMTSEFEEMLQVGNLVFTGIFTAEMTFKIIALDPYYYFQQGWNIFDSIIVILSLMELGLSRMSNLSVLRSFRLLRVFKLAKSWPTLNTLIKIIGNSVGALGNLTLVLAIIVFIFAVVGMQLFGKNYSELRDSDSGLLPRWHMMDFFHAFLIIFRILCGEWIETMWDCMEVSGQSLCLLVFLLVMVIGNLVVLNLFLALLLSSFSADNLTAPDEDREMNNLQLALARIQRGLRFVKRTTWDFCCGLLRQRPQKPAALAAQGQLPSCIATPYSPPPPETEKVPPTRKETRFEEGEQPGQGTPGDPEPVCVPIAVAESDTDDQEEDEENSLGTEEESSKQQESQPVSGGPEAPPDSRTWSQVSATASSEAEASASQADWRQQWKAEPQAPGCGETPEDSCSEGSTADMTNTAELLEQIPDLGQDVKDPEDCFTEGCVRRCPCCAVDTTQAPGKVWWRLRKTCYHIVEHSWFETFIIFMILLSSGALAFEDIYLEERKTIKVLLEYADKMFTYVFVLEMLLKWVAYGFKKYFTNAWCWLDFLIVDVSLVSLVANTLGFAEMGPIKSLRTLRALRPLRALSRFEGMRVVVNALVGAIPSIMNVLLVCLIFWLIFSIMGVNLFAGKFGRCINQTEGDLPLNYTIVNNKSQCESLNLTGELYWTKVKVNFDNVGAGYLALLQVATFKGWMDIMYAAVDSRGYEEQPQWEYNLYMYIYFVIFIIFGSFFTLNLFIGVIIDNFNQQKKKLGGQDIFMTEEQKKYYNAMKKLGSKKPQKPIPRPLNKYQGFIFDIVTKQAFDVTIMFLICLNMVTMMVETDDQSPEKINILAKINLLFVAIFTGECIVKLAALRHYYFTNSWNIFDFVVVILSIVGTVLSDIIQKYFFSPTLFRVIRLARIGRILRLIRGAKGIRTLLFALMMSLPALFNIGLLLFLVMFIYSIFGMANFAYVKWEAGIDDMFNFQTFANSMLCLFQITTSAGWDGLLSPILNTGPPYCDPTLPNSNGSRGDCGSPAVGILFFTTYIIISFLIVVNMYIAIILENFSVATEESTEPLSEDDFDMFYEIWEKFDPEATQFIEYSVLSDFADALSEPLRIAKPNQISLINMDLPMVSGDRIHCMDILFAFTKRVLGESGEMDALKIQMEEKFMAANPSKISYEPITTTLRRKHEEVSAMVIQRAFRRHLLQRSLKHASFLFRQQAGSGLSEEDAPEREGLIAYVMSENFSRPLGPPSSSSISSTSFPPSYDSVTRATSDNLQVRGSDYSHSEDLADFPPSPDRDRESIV

What does the source list for `CC1=C(C(=O)OCc2ccccc2)C(c2ccc(N(C)C)c3ccccc23)n2nnnc2N1` (stereo not drawn) [PT-032, benzyl 7-(4-(dimethylamino)naphthalen-1-yl)-5-methyl-4,7-dihydrotetrazolo[1,5-a]pyrimidine-6-carboxylate]?
inhibition at 10 µM [1]: 63.6%; inhibition at 10 µM [2, 4]: 11.5%; hERG Patch Clamp hERG % blk ([3]; 1 μM): 19.0%; hERG Patch Clamp hERG % blk ([3]; 10 μM): 50.5%

`CCOC(=O)C1=C(C)NC(C)=C(C(=O)OCC)C1c1ccc(CC)s1` [PT-113, diethyl 4-(5-ethylthiophen-2-yl)-2,6-dimethyl-1,4-dihydropyridine-3,5-dicarboxylate] was tested. Which inhibition at 10 µM [1] did it give?
Its inhibition at 10 µM is 88.6%.

What about the inhibition at 10 µM [2, 4] of the same molecule?
Its inhibition at 10 µM is 30.4%.

And the “hERG Patch Clamp hERG % blk” value ([3]; 1 μM)?
Its value is 11.0%.

And the “hERG Patch Clamp hERG % blk” value ([3]; 10 μM)?
The value was 57.3%.

With `CC1=C(C(=O)OC2CCc3ccccc32)C(c2cccc3ccccc23)n2nnnc2N1` (stereo not drawn) [PT-062, 2,3-dihydro-1H-inden-1-yl 5-methyl-7-(naphthalen-1-yl)-4,7-dihydrotetrazolo[1,5-a]pyrimidine-6-carboxylate] as the molecule, how does the inhibition at 10 µM [1] read?
Its inhibition at 10 µM is 60.2%.

What about the inhibition at 10 µM [2, 4] of the same molecule?
Its inhibition at 10 µM is 7.9%.

What about the “hERG Patch Clamp hERG % blk” value ([3]; 1 μM) of the same molecule?
The value was 14.0%.

And the “hERG Patch Clamp hERG % blk” value ([3]; 10 μM)?
Its value is 51.0%.

Which results are given for `CCOC(=O)C1=C(C)NC2=C(C(=O)CCC2)C1c1ccco1` (stereo not drawn) [PT-153, ethyl 4-(furan-2-yl)-2-methyl-5-oxo-1,4,5,6,7,8-hexahydroquinoline-3-carboxylate]?
inhibition at 10 µM [1]: -5%; inhibition at 10 µM [2, 4]: 1.7%; hERG Patch Clamp hERG % blk ([3]; 1 μM): 10.5%; hERG Patch Clamp hERG % blk ([3]; 10 μM): 13.5%

Which inhibition at 10 µM [1] does the source give for `CCOC(=O)C1=C(CC)NC(CC)=C(C(=O)OCC)C1c1ccc(Br)s1` [PT-181, diethyl 4-(5-bromothiophen-2-yl)-2,6-diethyl-1,4-dihydropyridine-3,5-dicarboxylate] here?
The inhibition at 10 µM was 91.7%.

And the inhibition at 10 µM [2, 4]?
The inhibition at 10 µM was 76.5%.

What about the “hERG Patch Clamp hERG % blk” value ([3]; 1 μM) of the same molecule?
Its value is 10.5%.

What about the “hERG Patch Clamp hERG % blk” value ([3]; 10 μM) of the same molecule?
Its value is 73.0%.

Which inhibition at 10 µM [1] does the source give for `N#CC1=C(N)OC2=C(C(=O)CCC2)C1c1ccsc1` (stereo not drawn) [PT-100, 2-amino-5-oxo-4-(thiophen-3-yl)-5,6,7,8-tetrahydro-4H-chromene-3-carbonitrile] here?
Its inhibition at 10 µM is -12.1%.

And the inhibition at 10 µM [2, 4]?
Its inhibition at 10 µM is 4%.

And the “hERG Patch Clamp hERG % blk” value ([3]; 1 μM)?
The value was 10.0%.

What about the “hERG Patch Clamp hERG % blk” value ([3]; 10 μM) of the same molecule?
Its value is 16.5%.

How did the inhibition at 10 µM [1] turn out when `CCOC(=O)C1=C(C)Nc2nnnn2C1c1cccc(Oc2ccccc2)c1` (stereo not drawn) [PT-464, ethyl 5-methyl-7-(3-phenoxyphenyl)-4,7-dihydrotetrazolo[1,5-a]pyrimidine-6-carboxylate] was run?
The inhibition at 10 µM was 55.8%.

And the inhibition at 10 µM [2, 4]?
The inhibition at 10 µM was 2.7%.

And the “hERG Patch Clamp hERG % blk” value ([3]; 1 μM)?
The value was 11.0%.

And the “hERG Patch Clamp hERG % blk” value ([3]; 10 μM)?
The value was 55.0%.

For `CCOC(=O)C1=C(C)Nc2nc(C#N)c(C#N)n2C1c1cccc2ccccc12` (stereo not drawn) [PT-194, ethyl 2,3-dicyano-7-methyl-5-(naphthalen-1-yl)-5,8-dihydroimidazo[1,2-a]pyrimidine-6-carboxylate], which inhibition at 10 µM [1] is on record?
The inhibition at 10 µM was 76.1%.

What about the inhibition at 10 µM [2, 4] of the same molecule?
The inhibition at 10 µM was 19.1%.

What about the “hERG Patch Clamp hERG % blk” value ([3]; 1 μM) of the same molecule?
The value was 25.0%.

What about the “hERG Patch Clamp hERG % blk” value ([3]; 10 μM) of the same molecule?
Its value is 91.0%.

With `CCOC(=O)C1=C(C)Nc2[nH]ncc2C1c1ccc(OC)cc1OCc1ccccc1` (stereo not drawn) [PT-445, ethyl 4-(2-(benzyloxy)-4-methoxyphenyl)-6-methyl-4,7-dihydro-1H-pyrazolo[3,4-b]pyridine-5-carboxylate] as the molecule, how does the inhibition at 10 µM [1] read?
The inhibition at 10 µM was 62.2%.

What about the inhibition at 10 µM [2, 4] of the same molecule?
The inhibition at 10 µM was 49.6%.

What about the inhibition at 10 µM [2, 5] of the same molecule?
Its inhibition at 10 µM is 31.6%.

And the “hERG Patch Clamp hERG % blk” value ([3]; 1 μM)?
The value was 10.5%.

What about the “hERG Patch Clamp hERG % blk” value ([3]; 10 μM) of the same molecule?
The value was 50.0%.

With `CC1=C(C(=O)OCc2ccccc2)C(c2nccs2)c2cn[nH]c2N1` (stereo not drawn) [PT-369, benzyl 6-methyl-4-(thiazol-2-yl)-4,7-dihydro-1H-pyrazolo[3,4-b]pyridine-5-carboxylate] as the molecule, how does the inhibition at 10 µM [1] read?
Its inhibition at 10 µM is 47.3%.

And the inhibition at 10 µM [2, 4]?
Its inhibition at 10 µM is 26.3%.

What about the inhibition at 10 µM [2, 5] of the same molecule?
Its inhibition at 10 µM is 13.5%.

What about the “hERG Patch Clamp hERG % blk” value ([3]; 1 μM) of the same molecule?
Its value is 10.0%.

And the “hERG Patch Clamp hERG % blk” value ([3]; 10 μM)?
The value was 25.0%.
